The nature of this data set: modified rapid controlled precipitation method (controlled degassing of CO2 until precipitation). In kind it is physicochemical. From the text:
The “Rapid-Controlled Precipitation Method” or the “Critical pH Method” can be used for determining the stability of the dialysis solution such as is described in F. Hui et al: Journal European of Water Quality (Journal European d'Hydrologie) T.33 Fasc. 1 (2002).
The results described within the framework of this disclosure were obtained by a modified rapid controlled precipitation method. The experiment setup comprises six 3-neck flasks (Carousel-6 from Radleys) which are open toward the top to ensure a uniform degassing of CO2 from the solution. Furthermore, this setup allows an in-line measurement of e.g. the pH and the conductivity as well as the simultaneous heating of the flasks.
The basic principle of the method used comprises the pH of the mixed solution or of the dialysis solution being slowly raised by controlled degassing of CO2 until the dialysis solution reaches a metastable state and ultimately precipitates.
A pH measurement, a particle count or a turbidity measurement can be used, for example, as methods for detecting the precipitation. […] The measured curves which can be obtained using these methods are compared in FIG. 3. […]
The pHmax and the precipitation products of the different solutions are compiled in Table 4 shown in the following. The values were all determined at 40° C. using the “rapid degassing” method. […]

The record followed here is patent US10172884B2, “Dialysis solutions comprising organic esters of phosphoric acid” (Fresenius Medical Care Deutschland GmbH, priority 2015, dated 2019).

In the case of `O=P(O)(O)OCC(O)CO` (centres unmarked) [glycerol orthophosphate], the Precipitation product result (40° C., rapid degassing method) was “no phosphates low in solubility are formed”. For the same compound, the “stability of the solution (pHmax and tG values)” value (T=40° C., result in words, FIGS. 10, 12, 13, 15) is “almost the same stabilizing effect as the addition of 0.1 mmol/L orthophosphate”.
